{"source": "patent US5736629A", "about": "“Herbicide resistant rice” (priority 1997, dated 1998)", "type_in_all_cases": "in vivo", "key": {"[1]": {"system": "ATCC 75295 rice line", "experiment": "Field plot test with AHAS-inhibiting herbicides, ATCC 75295", "protocol": "The resistance of these plants to several other AHAS-inhibiting herbicides was also tested. Nine-foot-long field plots were planted with seven rows of rice per plot. The test included nine check rice varieties, and the ATCC 75295 rice line. A shielded spray boom was used to apply herbicide, spraying six of the seven rows in each plot. The four herbicides used were Pursuit (imazethapyr: (±)-2-[4,5-dihydro-4-methyl-4-(1-methylethyl)-5-oxo-1H-imidazol-2-yl]-5-ethyl-3-pyridinecarboxylic acid); Scepter (imazaquin: 2-[4,5-dihydro-4-methyl-4-(1-methylethyl)-5-oxo-1H-imidazol-2-yl]-3-quinolinecarboxylic acid); Accent (nicosulfuron: 2-(((((4,6-dimethoxypyrimidin-2-yl)aminocarbonyl)) aminosulfonyl))-N,N-dimethyl-3-pyridinecarboxamide); and Beacon (primisulfuron: 3-[4,6-bis(difluoromethoxy)-pyrimidin-2-yl]-1-(2-methoxycarbonylphenylsulfonyl)urea). The herbicides were applied to two replicate plots for each herbicide when the rice was at the three-leaf stage of maturity. Two replicate plots of each check variety and of the resistant line were left unsprayed as controls. The Accent treatment used 0.67 ounce of product (0.50 ounce active ingredient) per acre, with 0.25% nonionic surfactant. The Pursuit treatment used four ounces of product (1.00 ounce active ingredient) per acre, with 0.25% nonionic surfactant. The Scepter treatment used one pint of product (3.00 ounces active ingredient) per acre, with 0.25% nonionic surfactant. The Beacon treatment used 0.76 ounce of product (0.57 ounce active ingredient) per acre, with 0.25% nonionic surfactant. […] A similar test with the same rice varieties and the ATCC 75295 line was conducted at the five-leaf stage of development (i.e., plants fifteen days older than in the test described above), using Accent and Pursuit at the rates given above. […] The ATCC 75295 line was resistant only when herbicide was applied post-emergence."}, "[2]": {"system": "mutagenised rice seedlings of ten rice varieties", "experiment": "Field screen of mutagenised rice seedlings, all other plants", "conditions": "2X treatment: nicosulfuron 0.063 lb a.i. per acre, imazethapyr 0.125 lb a.i. per acre; 0.25% non-ionic surfactant; 3-4 leaf stage; about four weeks later", "source_text": "The second resistance mechanism resulted from inducing mutations in seeds of each of ten rice varieties. Mutations were induced by exposure either to gamma rays or to the chemical mutagen ethyl methanesulfonate (EMS). Ten-pound lots of seed of each variety were subjected to 25 k-rad of gamma irradiation from a Cobalt-60 source at the Nuclear Science Center, Louisiana State University, Baton Rouge, La. prior to planting. An additional ten pounds of seed of each variety was divided into three equal portions; and each portion was soaked for 16 hours in either 0.1%, 0.5%, or 1% EMS immediately prior to planting. Several hundred pounds of seed were harvested from plants grown from the seeds subjected to these mutagenic treatments.\nThe following spring the harvested seed was planted in strips in a field planting occupying a total of about three acres. At the 3-4 leaf stage of seedling development, herbicides were applied to screen for herbicide-resistant mutants. Half of the seedlings of each variety were sprayed with a 2X treatment of nicosulfuron, and half were sprayed with a 2X treatment of imazethapyr, in both cases by a tractor-mounted sprayer. Nicosulfuron was applied at the rate of 0.063 lb active ingredient (a.i.) per acre, and imazethapyr was applied at 0.125 lb a.i. per acre. Non-ionic surfactant (0.25%) was added to each spray solution. […]"}, "[3]": {"system": "progeny of the mutant rice plant (ATCC 97523)", "experiment": "Subsequent greenhouse and field testing of progeny of the surviving plant", "conditions": "herbicides applied either pre-emergence or post-emergence", "source_text": "(Imazamox is sold by American Cyanamid under the trade name Raptor, and has as active ingredient (+)-5-methoxymethyl-2-(4-isopropyl-4-methyl-5-oxo-2-imidazolin-2-yl) nicotinic acid. Imazameth is sold by American Cyanamid under the trade name Cadre, and has as active ingredient (±)-2-[4,5-dihydro-4-methyl-4-(1-methyl-ethyl)-5-oxo-1H-imidazol-2-yl]- 5-methyl-3-pyridinecarboxylicacid;alternatechemicalname (±)-2-(4-isopropyl-4-methyl-5-oxo-2-imidazolin-2-yl)-5-methylnicotinic acid). Imazapyr is sold by American Cyanamid under the trade name Arsenal, and has active ingredient 2-[4,5-dihydro-4-methyl-4-(1-methylethyl)-5-oxo-1H-imidazol-2-yl]-3-pyridinecarboxylic acid) This line is resistant to herbicides applied either pre-emergence or post-emergence."}, "[4]": {"conditions": "five-leaf stage (plants fifteen days older), same rates as in the three-leaf test"}, "[5]": {"conditions": "three-leaf stage, per acre a.i.: Accent 0.50 ounce, Pursuit 1.00 ounce, Scepter 3.00 ounces, Beacon 0.57 ounce, 0.25% nonionic surfactant"}, "[6]": {"conditions": "subsequent tests (data not shown)"}}}
{"smiles": "COc1cc(OC)nc(NC(=O)NS(=O)(=O)c2ncccc2C(=O)N(C)C)n1", "note": "[nicosulfuron, 2-(((((4,6-dimethoxypyrimidin-2-yl)aminocarbonyl))aminosulfonyl))-N,N-dimethyl-3-pyridinecarboxamide]", "values": [{"measurement": "Resistance of the rice line (in words)", "setting": "[1]; [4]", "result": "excellent resistance"}, {"measurement": "Resistance of the rice line (in words)", "setting": "[1]; [5]", "result": "excellent resistance"}, {"measurement": "Symptoms of injury (in words)", "setting": "[2]", "result": "either severely injured or dead"}, {"measurement": "Resistance of the rice line (in words)", "setting": "[3]", "result": "resistance"}]}
{"smiles": "COCc1cnc(C2=NC(C)(C(C)C)C(=O)N2)c(C(=O)O)c1", "note": "(single isomer, unassigned; (+)) [imazamox, (+)-5-methoxymethyl-2-(4-isopropyl-4-methyl-5-oxo-2-imidazolin-2-yl) nicotinic acid]", "values": [{"measurement": "Resistance of the rice line (in words)", "setting": "[3]", "result": "resistance"}]}
{"smiles": "CC(C)C1(C)N=C(c2nc3ccccc3cc2C(=O)O)NC1=O", "note": "(stereo not shown) [imazaquin, 2-[4,5-dihydro-4-methyl-4-(1-methylethyl)-5-oxo-1H-imidazol-2-yl]-3-quinolinecarboxylic acid]", "values": [{"measurement": "Resistance of the rice line (in words)", "setting": "[1]; [4]", "result": "good resistance"}, {"measurement": "Resistance of the rice line (in words)", "setting": "[1]; [5]", "result": "good resistance"}, {"measurement": "Resistance of the rice line (in words)", "setting": "[3]", "result": "resistance"}]}
{"smiles": "COC(=O)c1ccccc1S(=O)(=O)NC(=O)Nc1nc(OC(F)F)cc(OC(F)F)n1", "note": "[primisulfuron, 3-[4,6-bis(difluoromethoxy)-pyrimidin-2-yl]-1-(2-methoxycarbonylphenylsulfonyl)urea]", "values": [{"measurement": "Resistance of the rice line (in words)", "setting": "[1]; [5]", "result": "lower, but still significantly greater than that of the check rice varieties"}]}
{"smiles": "Cc1cnc(C2=NC(C)(C(C)C)C(=O)N2)c(C(=O)O)c1", "note": "(racemic) [imazameth, (±)-2-[4,5-dihydro-4-methyl-4-(1-methyl-ethyl)-5-oxo-1H-imidazol-2-yl]-5-methyl-3-pyridinecarboxylicacid]", "values": [{"measurement": "Resistance of the rice line (in words)", "setting": "[1]; [6]", "result": "exhibited resistance"}, {"measurement": "Resistance of the rice line (in words)", "setting": "[3]", "result": "resistance"}]}
{"smiles": "CC(C)C1(C)N=C(c2ncccc2C(=O)O)NC1=O", "note": "(stereo not shown) [imazapyr, 2-[4,5-dihydro-4-methyl-4-(1-methylethyl)-5-oxo-1H-imidazol-2-yl]-3-pyridinecarboxylic acid]", "values": [{"measurement": "Resistance of the rice line (in words)", "setting": "[1]; [6]", "result": "exhibited resistance"}, {"measurement": "Resistance of the rice line (in words)", "setting": "[3]", "result": "resistance"}]}
